These results are taken from patent US20160271100A1, “METHOD FOR TREATING TUMORS AND RADIOTHERAPY- AND CHEMOTHERAPY-[…] OR EMOTIONAL […] CANNABINOIDS” (GLIA LLC, priority 2014, published 2016).

One series deals with glioblastoma tumor. Particulars: one human study; cited from earlier work.
Series [1] concerns chemo brain and brain fog. The series can be described thus: Low dose topical dronabinol for chemo brain and brain fog induced by short-term chemotherapy (same patient). Here is the method:
The patient was treated again with temozolamide, and bevacizumab.
Each morning, the patient was treated with dronabinol as described in Example 1 supra.

The subject of a further series is glioblastoma. In words: Course of glioblastoma (MRI/PET) under chemotherapy with or without topical dronabinol (same patient). It is filed as in vivo, human. Particulars: for adverse effects that led to discontinuation of chemotherapy: patient with glioblastoma. The method, then: By way of reminder, the patient described in the two examples set forth above was diagnosed with glioblastoma in February 2010. Approximately 95% of the tumor was surgically removed within 3 days of diagnosis. Following the surgery, the patient was treated with radiation, as well as by chemotherapy with a combination of temozolamide, topotecan, and bevacizumab. […] In May of 2011, the combination therapy was discontinued and the patient received only maintenance bevacizumab. MRI scans were performed every two months to monitor any changes in the brain.
The patient resumed chemotherapy with a combination of temozolamide, etoposide, and bevacizumab. […] The chemotherapy regimen was changed to carboplatin, irinotecan, together with bevacizumab.
As mentioned above, the patient was treated with 2.5 mg topical dronabinol beginning in December 2012 and continuing to the present.
On Mar. 19, 2014, a further increase in size of the tumor was noted. The secondary tumor was unchanged.
In early April 2014, the patient was again treated with temozolamide and bevacizumab.

The test system of series [2] is chemo brain and brain fog (chemotherapy-associated cognitive or emotional impairment). The series can be described thus: Daily low-dose topical dronabinol for chemo brain and brain fog induced by long term chemotherapy and radiation (single patient). The following applies: 2.5 mg daily applied to forehead. Here is the method:
A person was diagnosed with glioblastoma in February 2010 and underwent immediate surgery to remove the tumor. Within 6 weeks of the surgery, they began radiotherapy and chemotherapy with a combination of temozolamide, topotecan, and bevacizumab.
Beginning in December of 2012 and continuing through March of 2014, the patient, who was not undergoing any chemotherapy at this time, was treated daily with 2.5 mg of dronabinol applied to their forehead. Daily evaluation by their caretaker and quarterly evaluations by a medical institution were documented during this treatment period.

As to `CCCCCc1cc(O)c2c(c1)OC(C)(C)[C@@H]1CCC(C)=C[C@@H]21` [THC, tetrahydrocannabinol], the “benefit of THC instilled into a glioblastoma tumor” value with glioblastoma tumor is recorded as “failed to demonstrate a clear-cut benefit”.
Take `CCCCCc1cc(O)c2c(c1)OC(C)(C)[C@@H]1CCC(C)=C[C@@H]21` [dronabinol, (6aR,10aR)-6a,7,8,10a-tetrahydro-6,6,9-trimethyl-3-pentyl-6H-dibenzo[b,d]-pyran-1-ol]: the “hallucinatory or adverse cognitive effects” value in series [1] (2.5 mg topical each morning during chemotherapy) is “no hallucinatory or adverse cognitive effects were observed”. The “time to significant diminishment of brain fog after each dose” value in series [1] (2.5 mg topical each morning during temozolamide and bevacizumab chemotherapy) is no more than 45 min. Also, the “duration of the effects of administration” value in series [1] (2.5 mg topical each morning, six-week period) is recorded as “lasted until the following morning”. Further, the “tumor response by MRI, chemotherapy co-administered with topical dronabinol” value in the series on glioblastoma (2.5 mg topical dronabinol continued with temozolamide and bevacizumab, MRI 6 weeks after initiation of chemotherapy) is “shrinkage of both the primary tumor that had regrown into the extirpated space and the secondary tumor”. Moreover, the “primary tumor by MRI, topical dronabinol without chemotherapy” value in the series on glioblastoma (2.5 mg topical dronabinol, MRI December 6, 2013 and Mar. 19, 2014) is given as “increase in size of the primary tumor”. Moreover, the “secondary tumor by MRI, topical dronabinol without chemotherapy” value in the series on glioblastoma (2.5 mg topical dronabinol, Mar. 19, 2014) is given as “unchanged”. In series [2] (December 2012 to March 2014), the “cognitive functions, emotional skills, and social interaction skills” value is “showed daily and long term improvement”; the “hallucinatory or adverse cognitive effects” value was “no hallucinatory or adverse cognitive effects were observed”. In addition, in series [2] (patient not on chemotherapy), the “time to signs of improved recognition, memory, and social interaction after initiation of treatment” value fell in the range of 1 to 2 days.
Take `O=NN(CCCl)C(=O)NC1CCCCC1` [lomustine]: the “adverse effects that led to discontinuation of chemotherapy” value in the series on glioblastoma is “hypertension and proteinuria”.
Consider Bevacizumab: chemotherapy agent, for which, in the series with glioblastoma, the “adverse effects that led to discontinuation of chemotherapy” value is “hypertension and proteinuria”.
